Laboratory results: ChEMBL document CHEMBL3856285, “Recent progress in the identification of adenosine monophosphate-activated protein kinase (AMPK) activators” (Bioorg Med Chem Lett, 2016)

Assays:
[1] = molecular target: T1, AMP-activated protein kinase (AMPK) alpha-1/beta-1/gamma-1 (Homo sapiens, UniProt P54619+Q13131+Q9Y478); experiment: Activation of human recombinant AMPK alpha1/beta1/gamma1 expressed in African green monkey COS7 cells assessed as increase in biotinylated […] (1 to 120 residues) peptide phosphorylation at Ser-79 residue measured after 60 mins by Alphascreen assay; format: cell-based, COS-7
T1 sequence (P54619 whole entry, the tested form may be a part): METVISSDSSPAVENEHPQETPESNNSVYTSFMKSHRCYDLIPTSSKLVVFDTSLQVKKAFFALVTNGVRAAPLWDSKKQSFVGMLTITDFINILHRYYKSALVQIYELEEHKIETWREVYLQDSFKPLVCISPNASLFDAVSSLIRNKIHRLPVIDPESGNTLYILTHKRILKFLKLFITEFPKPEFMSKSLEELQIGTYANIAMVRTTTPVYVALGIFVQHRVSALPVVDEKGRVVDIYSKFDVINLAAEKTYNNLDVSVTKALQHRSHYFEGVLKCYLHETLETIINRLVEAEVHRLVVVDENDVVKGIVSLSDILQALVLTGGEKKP
T1 sequence (Q9Y478 whole entry, the tested form may be a part): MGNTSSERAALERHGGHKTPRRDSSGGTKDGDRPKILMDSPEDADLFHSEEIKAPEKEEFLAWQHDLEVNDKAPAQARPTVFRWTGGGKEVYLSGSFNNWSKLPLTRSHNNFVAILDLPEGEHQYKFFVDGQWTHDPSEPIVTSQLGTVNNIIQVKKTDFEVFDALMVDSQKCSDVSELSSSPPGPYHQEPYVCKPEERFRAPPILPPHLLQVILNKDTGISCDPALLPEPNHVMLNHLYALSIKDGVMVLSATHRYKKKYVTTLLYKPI
T1 sequence (Q13131 whole entry, the tested form may be a part): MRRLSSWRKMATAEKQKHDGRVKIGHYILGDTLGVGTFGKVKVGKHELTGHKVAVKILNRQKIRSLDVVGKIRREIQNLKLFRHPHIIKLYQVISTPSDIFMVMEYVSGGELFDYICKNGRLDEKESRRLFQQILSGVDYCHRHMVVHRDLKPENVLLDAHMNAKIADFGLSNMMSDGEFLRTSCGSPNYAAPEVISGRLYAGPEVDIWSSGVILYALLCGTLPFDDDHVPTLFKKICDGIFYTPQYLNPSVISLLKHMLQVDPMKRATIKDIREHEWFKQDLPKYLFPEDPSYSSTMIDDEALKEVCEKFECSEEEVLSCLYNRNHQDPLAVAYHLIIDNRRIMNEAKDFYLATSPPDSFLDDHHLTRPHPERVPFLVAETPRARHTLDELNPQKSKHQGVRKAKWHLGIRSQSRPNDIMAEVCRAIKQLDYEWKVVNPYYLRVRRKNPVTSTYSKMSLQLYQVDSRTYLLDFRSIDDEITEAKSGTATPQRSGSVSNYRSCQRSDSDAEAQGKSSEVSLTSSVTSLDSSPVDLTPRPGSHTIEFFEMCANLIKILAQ

[2] = molecular target: AMP-activated protein kinase (AMPK) alpha-1/beta-1/gamma-1 (Homo sapiens) (UniProt P54619+Q9Y478+Q13131); experiment: Activation of human recombinant AMPK alpha1/beta1/gamma1 expressed in African green monkey COS7 cells assessed as increase in biotinylated […] (1 to 120 residues) peptide phosphorylation at Ser-79 residue measured after 60 mins by Alphascreen assay relative to control; format: cell-based; details: COS-7
[3] = molecular target: AMPK alpha2/beta1/gamma1 (Homo sapiens, UniProt P54619+P54646+Q9Y478); experiment: Activation of human recombinant AMPK alpha2/beta1/gamma1 expressed in African green monkey COS7 cells assessed as increase in biotinylated […] (1 to 120 residues) peptide phosphorylation at Ser-79 residue measured after 60 mins by Alphascreen assay; format: cell-based, COS-7
[4] = molecular target: AMPK alpha2/beta1/gamma1 (Homo sapiens) (UniProt P54646+P54619+Q9Y478); experiment: Activation of human recombinant AMPK alpha2/beta1/gamma1 expressed in African green monkey COS7 cells assessed as increase in biotinylated […] (1 to 120 residues) peptide phosphorylation at Ser-79 residue measured after 60 mins by Alphascreen assay relative to control; format: cell-based; details: COS-7
[5] = molecular target: T2, AMPK alpha1/beta2/gamma1 (Homo sapiens, UniProt O43741+P54619+Q13131); experiment: Activation of human recombinant AMPK alpha1/beta2/gamma1 expressed in African green monkey COS7 cells assessed as increase in biotinylated […] (1 to 120 residues) peptide phosphorylation at Ser-79 residue measured after 60 mins by Alphascreen assay; format: cell-based, COS-7
Target sequence in this assay (O43741 whole entry, the tested form may be a part): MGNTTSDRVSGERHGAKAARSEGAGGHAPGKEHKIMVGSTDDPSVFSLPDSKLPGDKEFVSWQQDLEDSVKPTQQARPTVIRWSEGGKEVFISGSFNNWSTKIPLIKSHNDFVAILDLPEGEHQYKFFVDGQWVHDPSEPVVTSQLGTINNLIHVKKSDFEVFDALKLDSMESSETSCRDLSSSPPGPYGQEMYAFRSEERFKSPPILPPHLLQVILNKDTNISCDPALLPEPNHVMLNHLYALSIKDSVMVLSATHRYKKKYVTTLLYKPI
Target sequence in this assay (P54619 whole entry, the tested form may be a part): as the sequence (P54619 whole entry, the tested form may be a part) above
Target sequence in this assay (Q13131 whole entry, the tested form may be a part): as the sequence (Q13131 whole entry, the tested form may be a part) above

[6] = molecular target: T2, AMPK alpha1/beta2/gamma1; experiment: Activation of human recombinant AMPK alpha1/beta2/gamma1 expressed in African green monkey COS7 cells assessed as increase in biotinylated […] (1 to 120 residues) peptide phosphorylation at Ser-79 residue measured after 60 mins by Alphascreen assay relative to control; format: cell-based; details: COS-7
[7] = molecular target: AMPK alpha2/beta2/gamma1 (Homo sapiens, UniProt O43741+P54619+P54646); experiment: Activation of human recombinant AMPK alpha2/beta2/gamma1 expressed in African green monkey COS7 cells assessed as increase in biotinylated […] (1 to 120 residues) peptide phosphorylation at Ser-79 residue measured after 60 mins by Alphascreen assay; format: cell-based, COS-7
[8] = molecular target: AMPK alpha2/beta2/gamma1 (Homo sapiens) (UniProt P54646+O43741+P54619); experiment: Activation of human recombinant AMPK alpha2/beta2/gamma1 expressed in African green monkey COS7 cells assessed as increase in biotinylated […] (1 to 120 residues) peptide phosphorylation at Ser-79 residue measured after 60 mins by Alphascreen assay relative to control; format: cell-based; details: COS-7
Chain of AMPK alpha2/beta2/gamma1 (Homo sapiens) (O43741 whole entry, looked up, the tested form may be a part): as the sequence (O43741 whole entry, the tested form may be a part) above
Chain of AMPK alpha2/beta2/gamma1 (Homo sapiens) (P54619 whole entry, looked up, the tested form may be a part): as the sequence (P54619 whole entry, the tested form may be a part) above
Chain of AMPK alpha2/beta2/gamma1 (Homo sapiens) (P54646 whole entry, looked up, the tested form may be a part): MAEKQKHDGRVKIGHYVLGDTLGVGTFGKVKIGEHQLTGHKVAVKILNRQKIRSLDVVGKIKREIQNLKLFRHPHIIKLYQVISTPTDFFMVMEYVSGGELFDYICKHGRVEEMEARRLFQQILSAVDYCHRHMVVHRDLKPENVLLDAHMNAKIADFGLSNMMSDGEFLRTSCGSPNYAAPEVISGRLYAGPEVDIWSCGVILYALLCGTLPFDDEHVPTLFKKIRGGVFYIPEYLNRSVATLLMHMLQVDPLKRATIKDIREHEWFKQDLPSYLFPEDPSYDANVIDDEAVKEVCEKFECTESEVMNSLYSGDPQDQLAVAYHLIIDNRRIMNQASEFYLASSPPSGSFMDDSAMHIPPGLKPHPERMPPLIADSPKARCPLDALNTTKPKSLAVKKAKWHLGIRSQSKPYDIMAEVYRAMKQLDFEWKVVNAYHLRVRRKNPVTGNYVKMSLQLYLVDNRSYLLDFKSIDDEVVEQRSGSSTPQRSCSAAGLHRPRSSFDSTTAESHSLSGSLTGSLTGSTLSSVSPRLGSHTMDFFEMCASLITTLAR

[9] = molecular target: AMPK alpha2/beta2/gamma3 (Homo sapiens, UniProt O43741+P54646+Q9UGI9); experiment: Activation of human recombinant AMPK alpha2/beta2/gamma3 expressed in African green monkey COS7 cells assessed as increase in biotinylated […] (1 to 120 residues) peptide phosphorylation at Ser-79 residue measured after 60 mins by Alphascreen assay; format: cell-based, COS-7
[10] = molecular target: AMPK alpha2/beta2/gamma3 (Homo sapiens) (UniProt P54646+O43741+Q9UGI9); experiment: Activation of human recombinant AMPK alpha2/beta2/gamma3 expressed in African green monkey COS7 cells assessed as increase in biotinylated […] (1 to 120 residues) peptide phosphorylation at Ser-79 residue measured after 60 mins by Alphascreen assay relative to control; format: cell-based; details: COS-7
Chain of AMPK alpha2/beta2/gamma3 (Homo sapiens) (O43741 whole entry, looked up, the tested form may be a part): as the sequence (O43741 whole entry, the tested form may be a part) above
Chain of AMPK alpha2/beta2/gamma3 (Homo sapiens) (P54646 whole entry, looked up, the tested form may be a part): as the sequence (P54646 whole entry, looked up, the tested form may be a part) above
Chain of AMPK alpha2/beta2/gamma3 (Homo sapiens) (Q9UGI9 whole entry, looked up, the tested form may be a part): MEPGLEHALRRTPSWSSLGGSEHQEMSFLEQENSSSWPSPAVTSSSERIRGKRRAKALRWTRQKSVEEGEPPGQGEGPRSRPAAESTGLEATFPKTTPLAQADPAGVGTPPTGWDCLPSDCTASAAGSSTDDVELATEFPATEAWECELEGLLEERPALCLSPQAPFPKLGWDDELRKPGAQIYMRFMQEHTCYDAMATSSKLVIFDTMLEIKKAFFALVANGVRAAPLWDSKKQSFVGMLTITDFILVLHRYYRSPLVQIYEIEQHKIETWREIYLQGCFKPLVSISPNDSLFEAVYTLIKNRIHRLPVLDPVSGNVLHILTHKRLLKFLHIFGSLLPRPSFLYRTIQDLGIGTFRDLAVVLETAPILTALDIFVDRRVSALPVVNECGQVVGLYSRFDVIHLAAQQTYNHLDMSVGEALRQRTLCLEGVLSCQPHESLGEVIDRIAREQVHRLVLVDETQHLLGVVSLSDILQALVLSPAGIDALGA

[11] = molecular target: T1, AMP-activated protein kinase (AMPK) alpha-1/beta-1/gamma-1; experiment: Activation of full length human recombinant N-terminal GST-tagged AMPK alpha1/beta1/gamma1 expressed in baculovirus infected High Five cells using NH2-HMRSAMSGLHLVKRR CONH2 substrate after 60 mins by ADP-Glo kinase assay; set-up: species or system BTI-TN-5B1-4

EC50 [1] [nM]	fold change (FC) [2]	EC50 [3] [nM]	fold change (FC) [4]	EC50 [5] [nM]	fold change (FC) [6]	EC50 [7] [nM]	fold change (FC) [8]	EC50 [9] [nM]	fold change (FC) [10]	EC50 [11] [nM]	SMILES
11	27	27	13	4	10	2	13	4	16		Oc1cccc(O)c1-c1ccc(-c2cc3nc(O[C@@H]4CO[C@H]5[C@@H]4OC[C@H]5O)[nH]c3cc2Cl)cc1
										3	CS(=O)(=O)Nc1ccc(-c2ccc(-c3nc4nc(O[C@@H]5CO[C@H]6[C@@H]5OC[C@H]6O)[nH]c4cc3Cl)cc2)c(F)c1
